In patent US10393748B2, “Method for predicting efficacy of c-Met inhibitor” (Samsung Electronics Co., Ltd., priority 2014, dated 2019):

Columns and labels:
Format in all cases: cell-based, human
[1] = test system: Hs746T; assay: Cell proliferation, Cell-Titer Glo (CTG) assay, Hs746T; conditions: inhibitor concentration of 10 nM or more, 72 hours
Method: (§1) The 4 cell lines were seeded on a 96 well plate at the same amount (1×10^4 cells/well) and cultured for 24 hours (media: RPMI (Gibco, Invitrogen), culture conditions: 37° C., 5% CO2). The cultured cells were treated with representative c-Met inhibitor, crizotinib (Selleck chemical) and PHA665752((R,Z)-5-(2,6-dichlorobenzylsulfonyl)-3-((3,5-dimethyl-4-(2-(pyrrolidin-1-ylmethyl)pyrrolidine-1-carbonyl)-1H-pyrrol-2-yl)methylene)indolin-2-one), respectively. For comparison, human control IgG (chrompure human IgG (009-000-003, JACKSON IMMUNORESEARCH LABS INC.)) as a control and anti-c-Met antibody L3-1Y/IgG2 (Reference Example) were used respectively. Each of the inhibitors (or antibody) was treated at 10-fold serial diluted concentrations from 1000 nM to 0.01 nM. 72 hours after the treatment, the level of IL-8 in cell culture of each treatment group was assayed by Cytometric Bead Array (CBA) method using BD Cytometric Bead Array kit (see Example 1.1.2). In addition, in order to verify the anticancer efficacy of the c-Met inhibitors, the cell proliferation (%) was measured at 72 hours after c-Met inhibitor treatment through Cell-Titer Glo (CTG) assay.

[2] = test system: HT29; assay: Cell proliferation, Cell-Titer Glo (CTG) assay, HT29; conditions: 0.01 to 1000 nM, 72 hours
Method: as §1

[3] = test system: Lovo; assay: Cell proliferation, Cell-Titer Glo (CTG) assay, Lovo; conditions: 0.01 to 1000 nM, 72 hours
Method: as §1

[4] = test system: EBC-1; assay: Cell proliferation, Cell-Titer Glo (CTG) assay, EBC-1; conditions: inhibitor concentration of 10 nM or more, 72 hours
Method: as §1

| Structure (SMILES) | cell proliferation (%) [1] | cell proliferation (%) [2] | cell proliferation (%) [3] | cell proliferation (%) [4] |
| --- | --- | --- | --- | --- |
| C[C@@H](Oc1cc(-c2cnn(C3CCNCC3)c2)cnc1N)c1c(Cl)ccc(F)c1Cl [crizotinib, 3-((R)-1-(2,6-dichloro-3-fluorophenyl)ethoxy)-5-(1-(piperidin-4-yl)-1H-pyrazol-4-yl)pyridin-2-amine] | significantly inhibited | no significant decrease | no significant decrease | significantly inhibited |
| Cc1[nH]c(/C=C2\C(=O)Nc3ccc(S(=O)(=O)Cc4c(Cl)cccc4Cl)cc32)c(C)c1C(=O)N1CCC[C@@H]1CN1CCCC1 [PHA665752, (R,Z)-5-(2,6-dichlorobenzylsulfonyl)-3-((3,5-dimethyl-4-(2-(pyrrolidin-1-ylmethyl)pyrrolidine-1-carbonyl)-1H-pyrrol-2-yl)methylene)indolin-2-one] | significantly inhibited | no significant decrease | no significant decrease | significantly inhibited |
